In the supplement of paper PMC7840683:
± gives the standard deviation of the averaged measurements.

Tested on: HepaRG
Assay: LDH release cytotoxicity, % of total lysis control; higher = more cytotoxic
Conditions: 48 h
How it was run: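 HepaRG cells from a single lot were plated on collagen I-coated 96-well plates and treated in duplicate for 48 h with eight-point half-log series of test chemicals, starting at 100 µM, in serum-free induction medium containing 0.5% DMSO. Total lysis wells were given 0.1% Triton X. LDH released into 50 µL of spent medium was measured as resorufin fluorescence with CytoTox-ONE on a Tecan Safire. Percent cytotoxicity was normalized to on-plate vehicle and total lysis controls and then averaged across duplicates.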

Compound	LDH release cytotoxicity (0.03162 µM)	LDH release cytotoxicity (0.1 µM)	LDH release cytotoxicity (0.3162278 µM)	LDH release cytotoxicity (1 µM)	LDH release cytotoxicity (3.16228 µM)	LDH release cytotoxicity (10 µM)	LDH release cytotoxicity (31.6228 µM)	LDH release cytotoxicity (100 µM)	further results
Cc1ccn2nc(S(=O)(=O)Nc3c(F)cccc3F)nc2n1 [Flumetsulam]	-2 ± 0.6%	-0.7 ± 1.5%	-1.43 ± 3%	-1.43 ± 1.5%	-1.84 ± 0.62%	0.538 ± 0.94%	0.194 ± 2%	1.86 ± 1.8%	–
O=C(OCCCCCCOC(=O)c1ccccc1)c1ccccc1 [Hexane-1,6-diyl dibenzoate]	-2.1 ± 1%	-1.87 ± 0.28%	-2.22 ± 0.23%	-2.77 ± 1.1%	-2.28 ± 0.66%	-1.66 ± 0.29%	-1.98 ± 0.81%	-0.594 ± 0.66%	–
CC(=O)c1ccccc1 [Acetophenone]	-2.51 ± 1.2%	-2.44 ± 0.99%	-2.72 ± 0.4%	-2 ± 1.3%	-2.1 ± 0.76%	-1.71 ± 1%	-1.38 ± 0.1%	-0.356 ± 0.56%	–
N#Cc1cc(Br)c(O)c(Br)c1 [Bromoxynil]	–	–	–	–	–	–	–	–	LDH release cytotoxicity (0.0253 µM): -2.04 ± 0.26%; LDH release cytotoxicity (0.08 µM): -2.14 ± 0.42%; LDH release cytotoxicity (0.252982 µM): -2.16 ± 0.52%; LDH release cytotoxicity (0.8 µM): -1.57 ± 0.33%; LDH release cytotoxicity (2.52982 µM): -1.26 ± 0.39%; LDH release cytotoxicity (8 µM): 0.434 ± 0.55%; LDH release cytotoxicity (25.2982 µM): 0.49 ± 1.5%; LDH release cytotoxicity (80 µM): 55.4 ± 0.62%
CSC(=O)c1cccc2nnsc12 [Acibenzolar-S-methyl]	-0.11 ± 0.5%	-0.574 ± 0.66%	-0.682 ± 0.56%	-0.324 ± 0.3%	-0.302 ± 0.16%	-0.414 ± 0.83%	0.737 ± 0.21%	1.4 ± 0.15%	–
Cc1ccccc1COC1CC2(C(C)C)CCC1(C)O2 (stereo not given) [Cinmethylin]	-0.203 ± 0.059%	-1.15 ± 0.52%	-1.3 ± 0.27%	-1.23 ± 0.093%	-1.09 ± 0.76%	-0.853 ± 0.059%	-0.668 ± 0.63%	1.99 ± 1.4%	–
CCCCNC(=O)n1c(NC(=O)OC)nc2ccccc21 [Benomyl]	-1.36 ± 0.32%	-0.152 ± 0.59%	-0.651 ± 0.35%	-2.31 ± 0.2%	-1.18 ± 0.56%	8.93 ± 2.2%	8.73 ± 0.26%	9.79 ± 0.95%	–
O=c1[nH]sc2ccccc12 [1,2-Benzisothiazolin-3-one]	–	–	–	–	–	–	–	–	LDH release cytotoxicity (0.0327296 µM): -0.0461 ± 1.4%; LDH release cytotoxicity (0.1035 µM): -0.556 ± 0.24%; LDH release cytotoxicity (0.327296 µM): -0.331 ± 0.21%; LDH release cytotoxicity (1.035 µM): -0.299 ± 0.034%; LDH release cytotoxicity (3.27296 µM): -0.612 ± 0.23%; LDH release cytotoxicity (10.35 µM): -0.701 ± 0.032%; LDH release cytotoxicity (32.729574 µM): 0.567 ± 0.56%; LDH release cytotoxicity (103.5 µM): 2.85 ± 2.2%
Clc1cccc(Cl)c1 [1,3-Dichlorobenzene]	-0.441 ± 1.9%	-1.62 ± 0.022%	-0.906 ± 0.34%	-1.05 ± 0.054%	-1.07 ± 0.023%	0.199 ± 1.1%	3.191 ± 0.028%	25.9 ± 0.28%	–
CCCOC(=O)c1ccc(O)cc1 [Propylparaben]	-0.197 ± 0.47%	-0.55 ± 1.1%	-0.664 ± 0.59%	-0.711 ± 0.26%	-0.982 ± 0.64%	-0.514 ± 0.63%	-0.541 ± 0.47%	0.018 ± 1.1%	–
COc1cc(OC)nc(Sc2cccc(Cl)c2C(=O)O)n1 [Pyrithiobac-sodium]	-1.21 ± 0.15%	-0.445 ± 0.51%	-0.467 ± 0.22%	-0.953 ± 0.39%	-0.133 ± 0.53%	0.758 ± 0.15%	0.654 ± 0.062%	2.53 ± 0.2%	–
N#Cc1cccnc1 [3-Pyridinecarbonitrile]	-1.36 ± 2%	-2.41 ± 0.16%	-2.8 ± 0.062%	-2.872 ± 0.0079%	-3.04 ± 0.12%	-2.26 ± 0.059%	-2.04 ± 0.41%	-1.31 ± 0.76%	–
O=P(O)(O)CCCl [Ethephon]	-2.07 ± 0.56%	-1.57 ± 0.61%	-2.29 ± 0.67%	-1.94 ± 0.34%	-2.12 ± 0.63%	-1.39 ± 0.53%	-0.276 ± 0.008%	0.34 ± 0.033%	–
CNC(=O)ON=C(C)SC [Methomyl]	-0.681 ± 0.27%	-1.04 ± 0.28%	-0.724 ± 0.3%	-0.623 ± 0.49%	-1.04 ± 0.3%	-0.128 ± 0.062%	-1.13 ± 0.27%	-0.0692 ± 0.37%	–
CC(C)C(C(=O)OC(C#N)c1cccc(Oc2ccccc2)c1)c1ccc(Cl)cc1 (stereo not given) [Esfenvalerate]	-0.0612 ± 0.44%	-1.61 ± 0.76%	-0.46 ± 0.66%	-0.419 ± 0.79%	-1.05 ± 0.74%	0.166 ± 0.61%	-0.322 ± 0.82%	-0.488 ± 0.23%	–
CC1=CC(=O)CC(C)(C)C1 [Isophorone]	-0.205 ± 0.22%	0.529 ± 2.1%	-0.132 ± 0.62%	-0.235 ± 0.13%	0.145 ± 0.46%	1.04 ± 0.22%	0.514 ± 0.36%	1.74%	–
[OH-].c1cc[c]([Sn+]([c]2ccccc2)[c]2ccccc2)cc1 [Triphenyltin hydroxide]	-0.226 ± 1.2%	-1.04 ± 0.92%	-0.513 ± 0.71%	46.3 ± 2.9%	68.1 ± 5.3%	57.1 ± 7.2%	63.5 ± 2.9%	64.4 ± 3.7%	–
CCC(C)N=O (stereo not given) [2-Butanone oxime]	–	–	–	–	–	–	–	–	LDH release cytotoxicity (0.02261 µM): 0.0542 ± 0.017%; LDH release cytotoxicity (0.0715 µM): -0.457 ± 0.27%; LDH release cytotoxicity (0.2261029 µM): -1.06 ± 1%; LDH release cytotoxicity (0.715 µM): -1.57 ± 0.89%; LDH release cytotoxicity (2.26103 µM): -1.04 ± 0.2%; LDH release cytotoxicity (7.15 µM): -1.22 ± 0.13%; LDH release cytotoxicity (22.6103 µM): -1.08 ± 0.69%; LDH release cytotoxicity (71.5 µM): 0.052 ± 1%
COC(=O)c1ccccc1C(=O)O [Monomethyl phthalate]	–	-1.99 ± 0.55%	–	-2.55 ± 0.86%	-1.73 ± 0.51%	-1.97 ± 0.5%	-0.563 ± 0.24%	0.422 ± 0.27%	LDH release cytotoxicity (0.031623 µM): -0.688 ± 1.4%; LDH release cytotoxicity (0.316228 µM): -2.92 ± 0.47%
Nc1ccc(-c2ccc(N)cc2)cc1 [Benzidine]	-0.869 ± 4.3%	-2.2 ± 0.13%	-3.09 ± 0.054%	-2.37 ± 0.27%	-2.3 ± 0.28%	0.338 ± 4%	-0.733 ± 0.045%	0.306 ± 0.029%	–
